# Source: PubChem BioAssay (NCI)
#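 How tested: cells in 96-well plates exposed to compound for 48 hours at five concentrations. TGI: total growth inhibition.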
# Key:
# Assay in all cases: NCI tumour cell line growth inhibition, 48 h
# [1] = system: 786-0 renal
# [2] = system: A498 renal
# [3] = system: A549 NSCLC
# [4] = system: ACHN renal
# [5] = system: BT-549 breast
# [6] = system: CCRF-CEM leukemia
# [7] = system: COLO 205 colon
# [8] = system: DU-145 prostate
# [9] = system: EKVX NSCLC
# [10] = system: HCC-2998 colon
# [11] = system: HCT-116 colon
# [12] = system: HCT-15 colon
# [13] = system: HL-60(TB) leukemia
# [14] = system: HOP-92 NSCLC
# [15] = system: HS 578T breast
# [16] = system: HT29 colon
# [17] = system: IGROV1 ovarian
# [18] = system: K-562 leukemia
# [19] = system: KM12 colon
# [20] = system: LOX IMVI melanoma
# [21] = system: M14 melanoma
# [22] = system: MALME-3M melanoma
# [23] = system: MCF7 breast
# [24] = system: MDA-MB-435
# [25] = system: MDA-N
# [26] = system: MOLT-4 leukemia
# [27] = system: NCI-H226 lung
# [28] = system: OVCAR-3 ovarian
# [29] = system: OVCAR-4 ovarian
# [30] = system: OVCAR-5 ovarian
# [31] = system: OVCAR-8 ovarian
# [32] = system: PC-3 prostate
# [33] = system: RPMI-8226 leukemia
# [34] = system: SF-268 CNS
# [35] = system: SF-539 CNS
# [36] = system: SK-MEL-2 melanoma
# [37] = system: SK-MEL-28 melanoma
# [38] = system: SK-MEL-5 melanoma
# [39] = system: SK-OV-3 ovarian
# [40] = system: SNB-19 CNS
# [41] = system: SNB-75 CNS
# [42] = system: SR leukemia
# [43] = system: SW-620 colon
# [44] = system: TK-10 renal
# [45] = system: U251 CNS
# [46] = system: UACC-62 melanoma
# [47] = system: UO-31 renal
# [48] = system: CAKI-1 renal
# [49] = system: HOP-62 NSCLC
# [50] = system: NCI-H23 lung
# [51] = system: NCI-H460 lung
# [52] = system: NCI-H522 lung
# [53] = system: SF-295 CNS
# [54] = system: UACC-257 melanoma
# [55] = system: MDA-MB-231 breast
# [56] = system: NCI/ADR-RES ovarian
# [57] = system: RXF 393 renal
# [58] = system: SN12C renal
compound,measurement,setting,value
O=C(O)C(C(C(=O)O)P(=O)(O)O)P(=O)(O)O (stereo not given),TGI,[1],> 100 µM
same,TGI,[2],> 100 µM
same,TGI,[3],> 100 µM
same,TGI,[4],> 100 µM
same,TGI,[5],> 100 µM
same,TGI,[6],> 100 µM
same,TGI,[7],> 100 µM
same,TGI,[8],> 100 µM
same,TGI,[9],> 100 µM
same,TGI,[10],> 100 µM
same,TGI,[11],> 100 µM
same,TGI,[12],> 100 µM
same,TGI,[13],> 100 µM
same,TGI,[14],> 100 µM
same,TGI,[15],> 100 µM
same,TGI,[16],> 100 µM
same,TGI,[17],> 100 µM
same,TGI,[18],> 100 µM
same,TGI,[19],> 100 µM
same,TGI,[20],> 100 µM
same,TGI,[21],> 100 µM
same,TGI,[22],> 100 µM
same,TGI,[23],> 100 µM
same,TGI,[24],> 100 µM
same,TGI,[25],> 100 µM
same,TGI,[26],> 100 µM
same,TGI,[27],> 100 µM
same,TGI,[28],> 100 µM
same,TGI,[29],> 100 µM
same,TGI,[30],> 100 µM
same,TGI,[31],> 100 µM
same,TGI,[32],> 100 µM
same,TGI,[33],> 100 µM
same,TGI,[34],> 100 µM
same,TGI,[35],> 100 µM
same,TGI,[36],> 100 µM
same,TGI,[37],> 100 µM
same,TGI,[38],> 100 µM
same,TGI,[39],> 100 µM
same,TGI,[40],> 100 µM
same,TGI,[41],> 100 µM
same,TGI,[42],> 100 µM
same,TGI,[43],> 100 µM
same,TGI,[44],> 100 µM
same,TGI,[45],> 100 µM
same,TGI,[46],> 100 µM
same,TGI,[47],> 100 µM
CC(=O)OC1COC(n2c3ccccc3c3ccc4c5ccccc5[nH]c4c32)C(OC(C)=O)C1OC(C)=O (stereo not given),TGI,[2],77.7 µM
same,TGI,[3],> 100 µM
same,TGI,[5],> 100 µM
same,TGI,[48],65.9 µM
same,TGI,[6],> 100 µM
same,TGI,[7],> 100 µM
same,TGI,[10],> 100 µM
same,TGI,[11],> 100 µM
same,TGI,[12],> 100 µM
same,TGI,[49],53.3 µM
same,TGI,[14],87.3 µM
same,TGI,[16],62.8 µM
same,TGI,[17],30.8 µM
same,TGI,[18],82.4 µM
same,TGI,[19],37.9 µM
same,TGI,[24],> 100 µM
same,TGI,[25],> 100 µM
same,TGI,[26],> 100 µM
same,TGI,[50],> 100 µM
same,TGI,[51],57.6 µM
same,TGI,[52],44.6 µM
same,TGI,[28],> 100 µM
same,TGI,[29],> 100 µM
same,TGI,[30],> 100 µM
same,TGI,[32],96.5 µM
same,TGI,[33],> 100 µM
same,TGI,[53],33.3 µM
same,TGI,[36],> 100 µM
same,TGI,[37],> 100 µM
same,TGI,[38],> 100 µM
same,TGI,[39],52.1 µM
same,TGI,[40],> 100 µM
same,TGI,[41],33.2 µM
same,TGI,[43],> 100 µM
same,TGI,[45],74.2 µM
same,TGI,[54],> 100 µM
same,TGI,[46],> 100 µM
same,TGI,[47],> 100 µM
C/C(=N/NC(=S)N1CCCCC1)c1cccc(/C(C)=N\NC(=S)N2CCCCC2)n1,TGI,[1],3.46 µM
same,TGI,[2],3.16 µM
same,TGI,[3],7.29 µM
same,TGI,[4],3.02 µM
same,TGI,[5],3.4 µM
same,TGI,[48],3.93 µM
same,TGI,[6],> 100 µM
same,TGI,[7],10.1 µM
same,TGI,[8],6.35 µM
same,TGI,[9],5.79 µM
same,TGI,[10],4.01 µM
same,TGI,[11],3.64 µM
same,TGI,[12],4.25 µM
same,TGI,[13],5.66 µM
same,TGI,[49],15.9 µM
same,TGI,[15],6.57 µM
same,TGI,[16],7.22 µM
same,TGI,[17],4.45 µM
same,TGI,[18],6.65 µM
same,TGI,[19],6.14 µM
same,TGI,[20],5.4 µM
same,TGI,[22],4.58 µM
same,TGI,[23],4.46 µM
same,TGI,[55],3.99 µM
same,TGI,[24],3.62 µM
same,TGI,[25],3.17 µM
same,TGI,[26],6.38 µM
same,TGI,[27],5.54 µM
same,TGI,[50],> 100 µM
same,TGI,[51],4.75 µM
same,TGI,[52],4.34 µM
same,TGI,[56],4.72 µM
same,TGI,[28],5.49 µM
same,TGI,[30],2.44 µM
same,TGI,[31],3.19 µM
same,TGI,[32],4.03 µM
same,TGI,[33],6.84 µM
same,TGI,[57],5.15 µM
same,TGI,[34],9.06 µM
same,TGI,[53],4.06 µM
same,TGI,[35],3.9 µM
same,TGI,[36],4.2 µM
same,TGI,[37],4.32 µM
same,TGI,[38],3.54 µM
same,TGI,[39],3.56 µM
same,TGI,[58],4.83 µM
same,TGI,[40],7.09 µM
same,TGI,[41],6.53 µM
same,TGI,[42],6.58 µM
same,TGI,[43],10.6 µM
same,TGI,[44],3.69 µM
same,TGI,[45],4.45 µM
same,TGI,[54],6.85 µM
same,TGI,[46],5.54 µM
same,TGI,[47],2.78 µM
